Results published in patent US9790407B2, “Aqueous detergent soluble coating and adhesive and methods of temporary bonding for manufacturing” (priority 2013, dated 2017).

Tests used:
[1] = Detergency solubility of carboxylic acid coatings in KOH based system (Example 1); type: physicochemical; conditions: acidic coating, materials dissolved in DMAC
Method: (§1) Water solubility is tested and thermal resistance is indicated for each material.

[2] = Water solubility of carboxylic acid coatings (Example 1); conditions: acidic coating; materials dissolved in n,n-dimethylacetamide (DMAC)
Method: as §1

SMILES	Detergency (KOH based system) [1]	Water solubility (observed) [2]
O=C(O)c1ccc(O)cc1 [P-hydroxybenzoic acid]	Yes	Limited/no
O=C(O)c1cccc(C(=O)O)c1 [Isophthalic acid]	Yes	Limited/no
O=C(O)/C=C/C(=O)O [Fumaric Acid]	Partial	Limited/no

The next lines start with the values.

Detergency (KOH based system) [1]	Water solubility (observed) [2]	SMILES
Yes	–	O=C(O)c1ccccc1C(=O)O [Phthalic Acid]
Partial	–	O=C(O)c1ccc(C(=O)O)cc1 [Terephthalic acid]
